Patent US20230416256A1, “SMALL MOLECULE INHIBITORS OF NF-kB INDUCING KINASE” (Janssen Pharmaceutica NV, priority 2020, published 2023)

Assays:
[1] = test system: p-IKKα levels in L363 (NIK translocated multiple myeloma) cells; assay: Effect of compounds on p-IKKα levels in L363 cells (AlphaLISA SureFire Ultra); format: cell-based, human; conditions: Homo sapiens, L-363, 250 ng/ml BAFF stimulated, 10 μM MG132, 6 h, average of values obtained, read-out: Assay 2 IC50
Outline: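 L363 cells were BAFF-stimulated overnight (250 ng/ml) in DMEM/0.5% BSA, then exposed to an 11-point 1:3 compound series (0.3% DMSO) with BAFF and 10 μM MG132 for 6 h at 37 °C. p-IKKα (Ser176/180) was measured by AlphaLISA SureFire Ultra. IC50 was fitted from % inhibition normalized to stimulated and unstimulated controls.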

[2] = biological target: recombinant human NF-kappaB-inducing kinase (NIK/MAP3K14) (Homo sapiens, UniProt Q99558); assay: Inhibition of auto-phosphorylation of recombinant human NIK/MAP3K14 activity (AlphaScreen); format: biochemical; conditions: GST-tagged NIK/MAP3K14 1 nM, 5 μM ATP, 2 h at 25° C.; average of values obtained
Outline: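 GST-tagged NIK (1 nM) auto-phosphorylated for 2 h at 25 °C with 5 μM ATP in 50 mM Tris pH 7.5, 5 mM MgCl2, 0.7% DMSO. Phospho-Ser176/180 was detected by AlphaScreen using an anti-phospho-IKK antibody. IC50 came from sigmoidal fits of % inhibition versus high (full activity) and low (no ATP) controls.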

recombinant human NF-kappaB-inducing kinase (NIK/MAP3K14), sequence (Q99558 whole entry): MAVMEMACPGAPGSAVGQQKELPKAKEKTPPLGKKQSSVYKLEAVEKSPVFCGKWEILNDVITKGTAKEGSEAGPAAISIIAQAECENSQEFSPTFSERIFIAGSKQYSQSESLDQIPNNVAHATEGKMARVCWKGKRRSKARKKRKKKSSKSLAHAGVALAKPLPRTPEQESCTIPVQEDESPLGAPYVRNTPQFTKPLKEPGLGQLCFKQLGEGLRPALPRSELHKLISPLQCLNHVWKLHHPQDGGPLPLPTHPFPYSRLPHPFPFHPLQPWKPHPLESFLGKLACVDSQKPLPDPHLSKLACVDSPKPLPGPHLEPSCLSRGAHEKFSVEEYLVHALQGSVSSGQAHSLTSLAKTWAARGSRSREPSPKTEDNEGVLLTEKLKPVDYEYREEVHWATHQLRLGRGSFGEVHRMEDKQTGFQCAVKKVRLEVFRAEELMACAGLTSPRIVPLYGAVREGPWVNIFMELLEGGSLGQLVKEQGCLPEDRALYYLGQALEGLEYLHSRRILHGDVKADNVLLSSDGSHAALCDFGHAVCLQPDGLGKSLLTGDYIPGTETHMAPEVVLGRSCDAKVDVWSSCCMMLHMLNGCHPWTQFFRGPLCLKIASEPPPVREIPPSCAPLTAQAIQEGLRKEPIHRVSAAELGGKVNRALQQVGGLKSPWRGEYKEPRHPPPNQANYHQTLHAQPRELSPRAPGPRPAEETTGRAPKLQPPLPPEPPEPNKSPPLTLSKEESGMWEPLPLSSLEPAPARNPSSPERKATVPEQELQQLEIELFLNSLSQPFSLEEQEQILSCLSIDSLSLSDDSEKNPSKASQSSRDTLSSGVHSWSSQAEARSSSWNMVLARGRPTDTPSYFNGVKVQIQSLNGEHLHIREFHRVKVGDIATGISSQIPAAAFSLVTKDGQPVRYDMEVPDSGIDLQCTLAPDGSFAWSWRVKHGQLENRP

Compound	IC50 [1] [µM]	IC50 [2] [µM]
CN1CC[C@@](O)(c2cccc(-c3cc(-c4c[nH]c5ncccc45)co3)c2)C1=O [Example 115, (R)-3-(3-(4-(1H-Pyrrolo[2,3-b]pyridin-3-yl)furan-2-yl)phenyl)-3-hydroxy-1-methylpyrrolidin-2-one]	> 0.5	> 0.5
CN1CC[C@@](O)(c2cccc(-c3coc(-c4c[nH]c5ncccc45)n3)c2)C1=O [Example 116, (R)-3-(3-(2-(1H-Pyrrolo[2,3-b]pyridin-3-yl)oxazol-4-yl)phenyl)-3-hydroxy-1-methylpyrrolidin-2-one]	> 0.5	≤ 0.1
CN1CC[C@@](O)(c2cccc(-c3cc(-c4c[nH]c5ncccc45)[nH]n3)c2)C1=O [Example 117, (R)-3-(3-(5-(1H-Pyrrolo[2,3-b]pyridin-3-yl)-1H-pyrazol-3-yl)phenyl)-3-hydroxy-1-methylpyrrolidin-2-one]	> 0.5	0.1 to 0.5
CN1CC[C@@](O)(c2cccc(-c3cc(-c4c[nH]c5ncccc45)nn3C)c2)C1=O [Example 118, (R)-3-Hydroxy-1-methyl-3-(3-(1-methyl-3-(1H-pyrrolo[2,3-b]pyridin-3-yl)-1H-pyrazol-5-yl)phenyl)pyrrolidin-2-one]	> 0.5	0.1 to 0.5
Cc1c(-c2c[nH]c3ncccc23)n[nH]c1-c1cccc([C@]2(O)CCN(C)C2=O)c1 [Example 119, (R)-3-Hydroxy-1-methyl-3-(3-(4-methyl-3-(1H-pyrrolo[2,3-b]pyridin-3-yl)-1H-pyrazol-5-yl)phenyl)pyrrolidin-2-one]	> 0.5	> 0.5
CN1CC[C@@](O)(c2cccc(-c3cnc(-c4c[nH]c5ncccc45)n3C)c2)C1=O [Example 120, (R)-3-hydroxy-1-methyl-3-(3-(1-methyl-2-(1H-pyrrolo[2,3-b]pyridin-3-yl)-1H-imidazol-5-yl)phenyl)pyrrolidin-2-one]	> 0.5	> 0.5
CN1CC[C@@](O)(c2cccc(-c3ncc(-c4c[nH]c5ncccc45)n3C)c2)C1=O [Example 125, (R)-3-Hydroxy-1-methyl-3-(3-(1-methyl-5-(1H-pyrrolo[2,3-b]pyridin-3-yl)-1H-imidazol-2-yl)phenyl)pyrrolidin-2-one]	> 0.5	0.1 to 0.5
CN1CC[C@@](O)(c2cccc(-c3nc(-c4ccnc5[nH]ccc45)cs3)c2)C1=O [Example 127, (R)-3-(3-(4-(1H-Pyrrolo[2,3-b]pyridin-4-yl)thiazol-2-yl)phenyl)-3-hydroxy-1-methylpyrrolidin-2-one]	> 0.5	≤ 0.1
CN1CC[C@@](O)(c2cccc(-c3nc(-c4ccc5cnn(C)c5c4)cs3)c2)C1=O [Example 128, (R)-3-Hydroxy-1-methyl-3-(3-(4-(1-methyl-1H-indazol-6-yl)thiazol-2-yl)phenyl)pyrrolidin-2-one]	> 0.5	> 0.5
CN1CC[C@@](O)(c2cccc(-c3nc(-c4cc(N)nc5[nH]ccc45)cs3)c2)C1=O [Example 129, (R)-3-(3-(4-(6-Amino-1H-pyrrolo[2,3-b]pyridin-4-yl)thiazol-2-yl)phenyl)-3-hydroxy-1-methylpyrrolidin-2-one]	> 0.5	> 0.5
CN1CC[C@@](O)(c2cccc(-c3nc(-c4c(Cl)cnc5[nH]ccc45)cs3)c2)C1=O [Example 130, (R)-3-(3-(4-(5-Chloro-1H-pyrrolo[2,3-b]pyridin-4-yl)thiazol-2-yl)phenyl)-3-hydroxy-1-methylpyrrolidin-2-one]	> 0.5	> 0.5
CN1CC[C@@](O)(c2cccc(-c3nc(-c4cccc5[nH]ncc45)cs3)c2)C1=O [Example 131, (R)-3-(3-(4-(1H-Indazol-4-yl)thiazol-2-yl)phenyl)-3-hydroxy-1-methylpyrrolidin-2-one]	> 0.5	> 0.5
CN1CC[C@@](O)(c2cccc(-c3nc(-c4c(F)cnc5[nH]ccc45)cs3)c2)C1=O [Example 132, (R)-3-(3-(4-(5-Fluoro-1H-pyrrolo[2,3-b]pyridin-4-yl)thiazol-2-yl)phenyl)-3-hydroxy-1-methylpyrrolidin-2-one]	> 0.5	> 0.5
